Measurements published in patent US10681909B2, “Herbicidal triazoles” (FMC Corporation, priority 2014, dated 2020).

Key:
crabgrass, large = assay: Test C postemergence; format: in vivo, Digitaria sanguinalis
Procedure, shortened: (§1)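 Pre: seeded into loam/sand, sprayed same time. Post: plants in peat moss–vermiculite mix with starter nutrients and dolomitic limestone, treated at 1- to 4-leaf stage (2 to 18 cm). Formulation: non-phytotoxic solvent blend plus surfactant.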

barnyardgrass [1] = assay: Test A preemergence; format: in vivo, Echinochloa crus-galli; conditions: 0 to 100 scale (0 no effect, 100 complete control)
Procedure, shortened: (§2)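 Test chemicals, formulated in a surfactant-containing non-phytotoxic solvent mixture, are applied either as a directed soil spray to newly planted seeds or as a postemergence application to plants at the one- to two-leaf stage (2–10 cm). All plants grow in a loam soil and sand blend.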

nutsedge, yellow = assay: Test C postemergence; format: in vivo, Cyperus esculentus
Procedure, shortened: as §1

kochia = assay: Test C postemergence; format: in vivo, Kochia scoparia
Procedure, shortened: as §1

barnyardgrass [2] = assay: Test B flooded paddy test; format: in vivo, Echinochloa crus-galli; conditions: 250 g ai/ha, applied to paddy water at 2-leaf stage, visual rating after 13 to 15 d, scale 0 (no effect) to 100 (complete control)
Procedure, shortened: (§3)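 Pots were flooded to 3 cm above the soil at treatment, and compounds were applied directly into the paddy water. That depth was held throughout. After 13 to 15 d in a greenhouse, plants were rated visually against untreated controls.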

velvetleaf = assay: Test C postemergence; format: in vivo, Abutilon theophrasti
Procedure, shortened: as §1

ryegrass, Italian = assay: Test C postemergence; format: in vivo, Lolium multiflorum
Procedure, shortened: as §1

corn [3] = assay: Test A postemergence; format: in vivo, Zea mays; conditions: 0 to 100 scale (0 no effect, 100 complete control), approx. 10 d
Procedure, shortened: as §2

morningglory = assay: Test C postemergence; format: in vivo, Ipomoea coccinea
Procedure, shortened: as §1

oilseed rape = assay: Test C postemergence; format: in vivo, Brassica napus
Procedure, shortened: as §1

waterhemp = assay: Test C postemergence; format: in vivo, Amaranthus rudis
Procedure, shortened: as §1

corn [4] = assay: Test C postemergence; format: in vivo, Zea mays
Procedure, shortened: as §1

ragweed = assay: Test C postemergence; format: in vivo, Ambrosia elatior
Procedure, shortened: as §1

pigweed = assay: Test A postemergence; format: in vivo, Amaranthus retroflexus; conditions: 0 to 100 scale (0 no effect, 100 complete control), approx. 10 d
Procedure, shortened: as §2

sedge, umbrella = assay: Test B flooded paddy test; format: in vivo, Cyperus difformis; conditions: 250 g ai/ha, applied to paddy water at 2-leaf stage, visual rating after 13 to 15 d, scale 0 (no effect) to 100 (complete control)
Procedure, shortened: as §3

foxtail, giant [5] = assay: Test A postemergence; format: in vivo, Setaria faberii; conditions: 0 to 100 scale (0 no effect, 100 complete control), approx. 10 d
Procedure, shortened: as §2

barnyardgrass [6] = assay: Test A postemergence; format: in vivo, Echinochloa crus-galli; conditions: 0 to 100 scale (0 no effect, 100 complete control), approx. 10 d
Procedure, shortened: as §2

wheat = assay: Test A postemergence; format: in vivo, Triticum aestivum; conditions: 0 to 100 scale (0 no effect, 100 complete control), approx. 10 d
Procedure, shortened: as §2

barnyardgrass [7] = assay: Test C postemergence; format: in vivo, Echinochloa crus-galli
Procedure, shortened: as §1

ducksalad = assay: Test B flooded paddy test; format: in vivo, Heteranthera limosa; conditions: 250 g ai/ha, applied to paddy water at 2-leaf stage, visual rating after 13 to 15 d, scale 0 (no effect) to 100 (complete control)
Procedure, shortened: as §3

foxtail, giant [8] = assay: Test C postemergence; format: in vivo, Setaria faberii
Procedure, shortened: as §1

Compound: CCCOc1nc(-c2ccccc2)nn1Cc1ccnc(C(F)(F)F)c1 [Compound 33]
- Plant response rating (scale of 0 to 100 where 0 is no effect and 100 is complete control) (crabgrass, large; 31 g ai/ha): 5
- Plant response rating (scale of 0 to 100 where 0 is no effect and 100 is complete control) (crabgrass, large; 62 g ai/ha): 10
- Plant response rating (scale of 0 to 100 where 0 is no effect and 100 is complete control) (crabgrass, large; 125 g ai/ha): 10
- Plant response rating (scale of 0 to 100 where 0 is no effect and 100 is complete control) (crabgrass, large; 250 g ai/ha): 15
- Plant response rating, Barnyardgrass (barnyardgrass [1]; 125 g ai/ha): 50
- Plant response rating, Barnyardgrass (barnyardgrass [1]; 500 g ai/ha, approx. 10 d): 80
- Plant response rating (scale of 0 to 100 where 0 is no effect and 100 is complete control) (nutsedge, yellow; 31 g ai/ha): 5
- Plant response rating (scale of 0 to 100 where 0 is no effect and 100 is complete control) (nutsedge, yellow; 62 g ai/ha): 10
- Plant response rating (scale of 0 to 100 where 0 is no effect and 100 is complete control) (nutsedge, yellow; 125 g ai/ha): 10
- Plant response rating (scale of 0 to 100 where 0 is no effect and 100 is complete control) (nutsedge, yellow; 250 g ai/ha): 15
- Plant response rating (scale of 0 to 100 where 0 is no effect and 100 is complete control) (kochia; 31 g ai/ha): 90
- Plant response rating (scale of 0 to 100 where 0 is no effect and 100 is complete control) (kochia; 62 g ai/ha): 90
- Plant response rating (scale of 0 to 100 where 0 is no effect and 100 is complete control) (kochia; 125 g ai/ha): 90
- Plant response rating (scale of 0 to 100 where 0 is no effect and 100 is complete control) (kochia; 250 g ai/ha): 90
- Plant response rating, Barnyardgrass, Flood (barnyardgrass [2]): 0
- Plant response rating (scale of 0 to 100 where 0 is no effect and 100 is complete control) (velvetleaf; 31 g ai/ha): 15
- Plant response rating (scale of 0 to 100 where 0 is no effect and 100 is complete control) (velvetleaf; 62 g ai/ha): 15
- Plant response rating (scale of 0 to 100 where 0 is no effect and 100 is complete control) (velvetleaf; 125 g ai/ha): 10
- Plant response rating (scale of 0 to 100 where 0 is no effect and 100 is complete control) (velvetleaf; 250 g ai/ha): 40
- Plant response rating (scale of 0 to 100 where 0 is no effect and 100 is complete control) (ryegrass, Italian; 31 g ai/ha): 0
- Plant response rating (scale of 0 to 100 where 0 is no effect and 100 is complete control) (ryegrass, Italian; 62 g ai/ha): 5
- Plant response rating (scale of 0 to 100 where 0 is no effect and 100 is complete control) (ryegrass, Italian; 125 g ai/ha): 5
- Plant response rating (scale of 0 to 100 where 0 is no effect and 100 is complete control) (ryegrass, Italian; 250 g ai/ha): 15
- Plant response rating, Corn (corn [3]; 125 g ai/ha): 20
- Plant response rating, Corn (corn [3]; 500 g ai/ha): 30
- Plant response rating (scale of 0 to 100 where 0 is no effect and 100 is complete control) (morningglory; 31 g ai/ha): 55
- Plant response rating (scale of 0 to 100 where 0 is no effect and 100 is complete control) (morningglory; 62 g ai/ha): 80
- Plant response rating (scale of 0 to 100 where 0 is no effect and 100 is complete control) (morningglory; 125 g ai/ha): 85
- Plant response rating (scale of 0 to 100 where 0 is no effect and 100 is complete control) (morningglory; 250 g ai/ha): 75
- Plant response rating (scale of 0 to 100 where 0 is no effect and 100 is complete control) (oilseed rape; Oilsee Rape, 250 g ai/ha): 60
- Plant response rating (scale of 0 to 100 where 0 is no effect and 100 is complete control) (oilseed rape; Oilseed Rape, 31 g ai/ha): 40
- Plant response rating (scale of 0 to 100 where 0 is no effect and 100 is complete control) (oilseed rape; Oilseed Rape, 62 g ai/ha): 55
- Plant response rating (scale of 0 to 100 where 0 is no effect and 100 is complete control) (oilseed rape; Oilseed Rape, 125 g ai/ha): 80
- Plant response rating (scale of 0 to 100 where 0 is no effect and 100 is complete control) (waterhemp; 31 g ai/ha): 80
- Plant response rating (scale of 0 to 100 where 0 is no effect and 100 is complete control) (waterhemp; 62 g ai/ha): 95
- Plant response rating (scale of 0 to 100 where 0 is no effect and 100 is complete control) (waterhemp; 125 g ai/ha): 95
- Plant response rating (scale of 0 to 100 where 0 is no effect and 100 is complete control) (waterhemp; 250 g ai/ha): 95
- Plant response rating (scale of 0 to 100 where 0 is no effect and 100 is complete control) (corn [4]; 31 g ai/ha): 25
- Plant response rating (scale of 0 to 100 where 0 is no effect and 100 is complete control) (corn [4]; 62 g ai/ha): 30
- Plant response rating (scale of 0 to 100 where 0 is no effect and 100 is complete control) (corn [4]; 125 g ai/ha): 25
- Plant response rating (scale of 0 to 100 where 0 is no effect and 100 is complete control) (corn [4]; 250 g ai/ha): 25
- Plant response rating (scale of 0 to 100 where 0 is no effect and 100 is complete control) (ragweed; 31 g ai/ha): 35
- Plant response rating (scale of 0 to 100 where 0 is no effect and 100 is complete control) (ragweed; 62 g ai/ha): 35
- Plant response rating (scale of 0 to 100 where 0 is no effect and 100 is complete control) (ragweed; 125 g ai/ha): 40
- Plant response rating (scale of 0 to 100 where 0 is no effect and 100 is complete control) (ragweed; 250 g ai/ha): 75
- Plant response rating, Pigweed (pigweed; 125 g ai/ha): 100
- Plant response rating, Pigweed (pigweed; 500 g ai/ha): 100
- Plant response rating, Sedge, Umbrella, Flood (sedge, umbrella): 85
- Plant response rating, Foxtail, Giant (foxtail, giant [5]; 125 g ai/ha): 40
- Plant response rating, Foxtail, Giant (foxtail, giant [5]; 500 g ai/ha): 90
- Plant response rating, Barnyardgrass (barnyardgrass [6]; 125 g ai/ha): 20
- Plant response rating, Barnyardgrass (barnyardgrass [6]; 500 g ai/ha): 50
- Plant response rating, Wheat (wheat; 125 g ai/ha): 0
- Plant response rating, Wheat (wheat; 500 g ai/ha): 30
- Plant response rating (scale of 0 to 100 where 0 is no effect and 100 is complete control) (barnyardgrass [7]; 31 g ai/ha): 10
- Plant response rating (scale of 0 to 100 where 0 is no effect and 100 is complete control) (barnyardgrass [7]; 62 g ai/ha): 20
- Plant response rating (scale of 0 to 100 where 0 is no effect and 100 is complete control) (barnyardgrass [7]; 125 g ai/ha): 20
- Plant response rating (scale of 0 to 100 where 0 is no effect and 100 is complete control) (barnyardgrass [7]; 250 g ai/ha): 25
- Plant response rating, Ducksalad, Flood (ducksalad): 30
- Plant response rating (scale of 0 to 100 where 0 is no effect and 100 is complete control) (foxtail, giant [8]; 31 g ai/ha): 10
- Plant response rating (scale of 0 to 100 where 0 is no effect and 100 is complete control) (foxtail, giant [8]; 62 g ai/ha): 10
- Plant response rating (scale of 0 to 100 where 0 is no effect and 100 is complete control) (foxtail, giant [8]; 125 g ai/ha): 15
- Plant response rating (scale of 0 to 100 where 0 is no effect and 100 is complete control) (foxtail, giant [8]; 250 g ai/ha): 15
